Experimental data: US20260022142A1, “MACROCYCLIC IMMUNOMODULATORS” (Bristol-Myers Squibb Company, priority 2022, published 2026)
Bridge positions count the residues as written; N and C are the ends. Square brackets hold non-standard residues; d marks the D form. Peptide text beside a SMILES is read from it. * marks the point of attachment. ξ: configuration not given here. Phe(3-CF3) = N[C@@H](Cc1cccc(C(F)(F)F)c1)C(=O)O; Bip = N[C@@H](Cc1ccc(-c2ccccc2)cc1)C(=O)O; NH(CH2)14COOH = O=C(O)CCCCCCCCCCCCCCN*; Phe(3-Me) = Cc1cccc(C[C@H](N)C(=O)O)c1; Val(3-OH) = CC(C)(O)[C@H](N)C(=O)O; Cha = N[C@@H](CC1CCCCC1)C(=O)O; Cit = NC(=O)NCCC[C@H](N)C(=O)O; Ile(3ξ) = CCC(C)[C@H](N)C(=O)O; Thr(3ξ) = CC(O)[C@H](N)C(=O)O; 12Ado = NCCCCCCCCCCCC(=O)O; Carboxymethyl = O=C(O)C*; Orn = NCCC[C@H](N)C(=O)O; Aun = NCCCCCCCCCCC(=O)O; Dab = NCC[C@H](N)C(=O)O; Dap = NC[C@H](N)C(=O)O; AEEA = NCCOCCOCC(=O)O; ξC = NC(CS)C(=O)O

target: T1, PD-1/PD-L1 interaction (PE-labeled human PD-L1-Ig binding to Jurkat cell line over-expressing human PD-1) (Homo sapiens, UniProt Q15116); assay: Jurkat-PD-1 Cell Binding High-Content Screening Assay (CBA); format: cell-based; details: Jurkat cell line over-expressing human PD-1; PE-labeled PD-L1-Ig 20 nM final; read-out: Jurkat hPD1-PDL1 IC50
T1 construct: expressed in transfected cells; host or cells: Jurkat
Method in brief: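 First, compound is added to PD-1-expressing Jurkat cells in serum-containing DMEM and left 2 h at 37° C. Next, PE-conjugated PD-L1-Ig is introduced at 20 nM final concentration for 1 hour. Finally, cells are fixed in 4% paraformaldehyde with Hoechst 33342, washed and imaged.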

T1 sequence (Q15116 25-288): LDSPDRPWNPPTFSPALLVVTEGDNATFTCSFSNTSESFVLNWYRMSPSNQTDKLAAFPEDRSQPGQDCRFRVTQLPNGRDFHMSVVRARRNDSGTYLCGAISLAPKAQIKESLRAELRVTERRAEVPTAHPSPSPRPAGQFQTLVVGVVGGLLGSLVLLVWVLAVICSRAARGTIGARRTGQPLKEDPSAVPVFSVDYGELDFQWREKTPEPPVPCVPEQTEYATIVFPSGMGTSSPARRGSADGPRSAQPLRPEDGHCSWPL

SMILES	IC50
CC(C)C[C@H]1NC(=O)[C@H](CCCN)NC(=O)[C@H](CCCNC(N)=O)NC(=O)[C@H](Cc2ccc(-c3ccccc3)cc2)NC(=O)[C@H](C(C)C)NC(=O)[C@H](Cc2c[nH]c3ccccc23)NC(=O)[C@H](CC(=O)O)NC(=O)[C@H](Cc2ccc(OCC(=O)O)cc2)NC(=O)[C@H](CN)NC(=O)CSCC(C(=O)NCCOCCOCC(=O)NCCCCCCCCCCC(=O)O)NC(=O)[C@H](CCCCN)NC(=O)[C@H](C(C)C)NC(=O)[C@H](CC2CCCCC2)NC(=O)[C@H](CCN)NC1=O (stereo partly drawn) [Compound 2643] ({CH2CO}-[Dap]Y(Carboxymethyl)DWV[Bip][Cit][Orn][dL][Dab][Cha]VK[ξC][AEEA][Aun]-OH; thioether N-14)	7.2 nM
Cc1cccc(C[C@@H]2NC(=O)[C@H](CC(=O)O)NC(=O)[C@H](Cc3ccc(OCC(=O)O)cc3)NC(=O)[C@H](CN)NC(=O)CSC[C@@H](C(=O)N[C@@H](C)C(=O)N[C@@H](CCC(=O)O)C(=O)NCCCCCCCCCCC(=O)O)NC(=O)[C@H]([C@@H](C)O)NC(=O)[C@H](C(C)C)NC(=O)[C@H](CC3CCCCC3)NC(=O)[C@H](Cc3cnc[nH]3)NC(=O)[C@@H](CC(C)C)NC(=O)[C@H](CCCN)NC(=O)[C@H](C(C)C)NC(=O)[C@H](Cc3ccc(-c4ccccc4)cc3)NC(=O)[C@H](C(C)C)NC2=O)c1 [Compound 1103] ({CH2CO}-[Dap]Y(Carboxymethyl)D[Phe(3-Me)]V[Bip]V[Orn][dL]H[Cha]VTCAE[Aun]-OH; thioether N-14)	29.1 nM

The remaining lines, values ahead:

IC50	SMILES
156 nM	CC(C)C[C@H]1NC(=O)[C@H](CCCN)NC(=O)[C@H](Cc2ccc(OCC(=O)O)cc2)NC(=O)[C@H](Cc2ccc(-c3ccccc3)cc2)NC(=O)[C@H](Cc2ccc(OCC(=O)O)cc2)NC(=O)[C@H](Cc2cccc(C(F)(F)F)c2)NC(=O)[C@H](CC(=O)O)NC(=O)[C@H](Cc2ccc(OCC(=O)O)cc2)NC(=O)[C@H](Cc2c[nH]cn2)NC(=O)CSC[C@@H](C(=O)N[C@@H](CCN)C(=O)NCCCCCCCCCCCCCCC(=O)O)NC(=O)[C@H](CCC(=O)O)NC(=O)[C@H](C(C)(C)O)NC(=O)[C@H](CC2CCCCC2)NC(=O)[C@H](CCN)NC1=O [Compound 3868] ({CH2CO}-HY(Carboxymethyl)D[Phe(3-CF3)]Y(Carboxymethyl)[Bip]Y(Carboxymethyl)[Orn][dL][Dab][Cha][Val(3-OH)]EC[Dab]-{NH(CH2)14COOH}; thioether N-14)
59.8 nM	CC(C)C[C@@H]1NC(=O)[C@H](Cc2c[nH]c3ccccc23)NC(=O)[C@H](CC(=O)O)NC(=O)[C@H](Cc2ccc(OCC(=O)O)cc2)NC(=O)[C@H](CN)NC(=O)CSC[C@@H](C(=O)N[C@@H](CCN)C(=O)NCCCCCCCCCCC(=O)O)NC(=O)[C@H](CCCCN)NC(=O)[C@H](C(C)O)NC(=O)[C@H](CC2CCCCC2)NC(=O)[C@H](CCN)NC(=O)[C@@H](CC(C)C)NC(=O)[C@H](CCCN)NC(=O)[C@H](Cc2ccc(O)cc2)NC(=O)[C@H](Cc2ccc(-c3ccccc3)cc2)NC1=O (stereo partly drawn) [Compound 3693] ({CH2CO}-[Dap]Y(Carboxymethyl)DWL[Bip]Y[Orn][dL][Dab][Cha][Thr(3ξ)]KC[Dab][Aun]-OH; thioether N-14)
12.1 nM	CCC(C)[C@@H]1NC(=O)[C@H](Cc2ccc(-c3ccccc3)cc2)NC(=O)[C@H](C(C)C)NC(=O)[C@H](Cc2c[nH]c3ccccc23)NC(=O)[C@H](CC(=O)O)NC(=O)[C@H](Cc2ccc(OCC(=O)O)cc2)NC(=O)[C@H](CCN)NC(=O)CSC[C@@H](C(=O)NCCOCCOCC(=O)N[C@@H](CCCCN)C(=O)NCCCCCCCCCCCC(=O)O)NC(=O)[C@H](C(C)O)NC(=O)[C@H](C(C)C)NC(=O)[C@H](CC2CCCCC2)NC(=O)[C@H](CCN)NC(=O)[C@@H](CC(C)C)NC(=O)[C@H](CCCN)NC1=O (stereo partly drawn) [Compound 3096] ({CH2CO}-[Dab]Y(Carboxymethyl)DWV[Bip][Ile(3ξ)][Orn][dL][Dab][Cha]V[Thr(3ξ)]C[AEEA]K[12Ado]-OH; thioether N-14)
